Results reported in ChEMBL document CHEMBL1201862, “PubChem BioAssay data set” (2004).
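Step 1: Grow cells in 96-well plates. Step 2: Expose to compound for 48 hours at 5 concentrations. Step 3: Interpolate endpoints linearly; if unreached, use highest concentration. The concentration for 50% growth inhibition is given as GI50.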 Calls of active or inactive are those of the source. No stated cut-off is given here; in the data, active = GI50 up to about 1.1 µM and inactive = higher.

Experiments:
Assay in all cases: inhibition of tumour cell growth, NCI panel, 48 h
TK-10 = test system: TK-10
RPMI-8226 = test system: RPMI-8226
OVCAR-5 = test system: OVCAR-5
NCI-H522 = test system: NCI-H522
UO-31 = test system: UO-31
A498 = test system: A498
HL-60 = test system: HL-60
K562 = test system: K562
SNB-75 = test system: SNB-75
UACC-62 = test system: UACC-62
SNB-78 = test system: SNB-78
SK-MEL-2 = test system: SK-MEL-2
SF-539 = test system: SF-539
HCT-116 = test system: HCT-116
SNB-19 = test system: SNB-19
NCI/ADR-RES = test system: NCI/ADR-RES
RXF 393 = test system: RXF 393
LOX IMVI = test system: LOX IMVI
HOP-62 = test system: HOP-62
IGROV-1 = test system: IGROV-1
SK-MEL-28 = test system: SK-MEL-28
MCF7 = test system: MCF7
HCT-15 = test system: HCT-15
U-251 = test system: U-251
CCRF-CEM = test system: CCRF-CEM
RXF 631 = test system: RXF 631
EKVX = test system: EKVX
UACC-257 = test system: UACC-257
XF498 = test system: XF498
M19-MEL = test system: M19-MEL
SF-268 = test system: SF-268
786-0 = test system: 786-0
HOP-92 = test system: HOP-92
OVCAR-3 = test system: OVCAR-3
CAKI-1 = test system: CAKI-1
NCI-H23 = test system: NCI-H23
SF-295 = test system: SF-295
NCI-H460 = test system: NCI-H460
HT-29 = test system: HT-29
DMS-114 = test system: DMS-114
DMS-273 = test system: DMS-273
HCC 2998 = test system: HCC 2998
OVCAR-8 = test system: OVCAR-8
KM-20L2 = test system: KM-20L2
Malme-3M = test system: Malme-3M
HOP-18 = test system: HOP-18
SK-MEL-5 = test system: SK-MEL-5
LXFL 529 = test system: LXFL 529
OVCAR-4 = test system: OVCAR-4
ACHN = test system: ACHN
NCI-H226 = test system: NCI-H226
KM12 = test system: KM12
M14 = test system: M14
SW-620 = test system: SW-620
DLD-1 = test system: DLD-1
MOLT-4 = test system: MOLT-4
A549 = test system: A549
SK-OV-3 = test system: SK-OV-3
COLO 205 = test system: COLO 205
SN12C = test system: SN12C

Structure (SMILES): COc1ccc2c(c1)CCc1c(CO)c(COC(=O)NC(C)C)n(C)c1-2
- GI50 (TK-10): 14.6 µM (inactive)
- GI50 (RPMI-8226): 2.24 µM (inactive)
- GI50 (OVCAR-5): 24.2 µM (inactive)
- GI50 (NCI-H522): 3.44 µM (inactive)
- GI50 (UO-31): 4.97 µM (inactive)
- GI50 (A498): 9.29 µM (inactive)
- GI50 (HL-60): 1.59 µM (inactive)
- GI50 (K562): 2.41 µM (inactive)
- GI50 (SNB-75): 4.82 µM (inactive)
- GI50 (UACC-62): 5.6 µM (inactive)
- GI50 (SNB-78): 4.38 µM (inactive)
- GI50 (SK-MEL-2): 11.2 µM (inactive)
- GI50 (SF-539): 12.9 µM (inactive)
- GI50 (HCT-116): 2.91 µM (inactive)
- GI50 (SNB-19): 6.87 µM (inactive)
- GI50 (NCI/ADR-RES): 16.1 µM (inactive)
- GI50 (RXF 393): 7.55 µM (inactive)
- GI50 (LOX IMVI): 4.91 µM (inactive)
- GI50 (HOP-62): 24 µM (inactive)
- GI50 (IGROV-1): 5.68 µM (inactive)
- GI50 (SK-MEL-28): 5.02 µM (inactive)
- GI50 (MCF7): 9.79 µM (inactive)
- GI50 (HCT-15): 13 µM
- GI50 (U-251): 5.41 µM (inactive)
- GI50 (CCRF-CEM): 2.64 µM (inactive)
- GI50 (RXF 631): 13 µM (inactive)
- GI50 (EKVX): 22.9 µM (inactive)
- GI50 (UACC-257): 4.42 µM (inactive)
- GI50 (XF498): 7.83 µM (inactive)
- GI50 (M19-MEL): 3.7 µM (inactive)
- GI50 (SF-268): 6.49 µM (inactive)
- GI50 (786-0): 4.41 µM (inactive)
- GI50 (HOP-92): 4.01 µM (inactive)
- GI50 (OVCAR-3): 8.51 µM (inactive)
- GI50 (CAKI-1): 5.81 µM (inactive)
- GI50 (NCI-H23): 2.97 µM (inactive)
- GI50 (SF-295): 9.35 µM (inactive)
- GI50 (NCI-H460): 5.56 µM (inactive)
- GI50 (HT-29): 3.14 µM (inactive)
- GI50 (DMS-114): 2.59 µM (inactive)
- GI50 (DMS-273): 5.48 µM (inactive)
- GI50 (HCC 2998): 8.85 µM (inactive)
- GI50 (OVCAR-8): 3.33 µM (inactive)
- GI50 (KM-20L2): 6.59 µM (inactive)
- GI50 (Malme-3M): 4.15 µM (inactive)
- GI50 (HOP-18): 1.55 µM (inactive)
- GI50 (SK-MEL-5): 4.51 µM (inactive)
- GI50 (LXFL 529): 3.21 µM (inactive)
- GI50 (OVCAR-4): 4.34 µM (inactive)
- GI50 (ACHN): 3.83 µM (inactive)
- GI50 (NCI-H226): 2.68 µM (inactive)
- GI50 (KM12): 6.61 µM (inactive)
- GI50 (M14): 6.11 µM (inactive)
- GI50 (SW-620): 3.74 µM (inactive)
- GI50 (DLD-1): 4.72 µM (inactive)
- GI50 (MOLT-4): 2.68 µM (inactive)
- GI50 (A549): 6.53 µM (inactive)
- GI50 (SK-OV-3): 18.3 µM (inactive)
- GI50 (COLO 205): 2.09 µM (inactive)
- GI50 (SN12C): 8.93 µM (inactive)
